{
  "source": "patent US20200131669A1",
  "about": "“CYCLIC PEPTIDE COMPOUND HAVING HIGH MEMBRANE PERMEABILITY, AND LIBRARY CONTAINING SAME” (Chugai Seiyaku Kabushiki Kaisha, priority 2017, published 2020)",
  "note": "Starred links: 1 amine or outer side, 2 acyl side, 3 side chain; linkers in the order of their positions; H or OH if unused. Positions of bridges follow the written chain, without caps; N, C: chain ends. Non-standard residues stand in square brackets, D forms with d. Residues, ends and D or L forms follow the SMILES beside them. ξ: configuration not given here. *: point of attachment. NMePhe(3-Cl) = CN[C@@H](Cc1cccc(Cl)c1)C(=O)O; X12 = CCCC[C@@H](O)[C@H](N[*:1])C(=O)[*:2]; X14 = O=C([C@H](CCc1ccccc1Cl)N[*:1])[*:2]; X9 = O=C(CN(CCOc1ccccc1)[*:1])[*:2]; NMeF = CN[C@@H](Cc1ccccc1)C(=O)O; NMeI = CC[C@H](C)[C@H](NC)C(=O)O; 3Pal = N[C@@H](Cc1cccnc1)C(=O)O; 4Pal = N[C@@H](Cc1ccncc1)C(=O)O; NMeβAla = CN(CCC(=O)[*:2])[*:1]; NMeD = CN[C@@H](CC(=O)O)C(=O)O; NMeL = CN[C@@H](CC(C)C)C(=O)O; Propyl(2R-OH) = C[C@@H](O)C*; NMeV = CN[C@H](C(=O)O)C(C)C; NMeAbu = CC[C@H](NC)C(=O)O; NPentylGly = CCCCCNCC(=O)O; NMeA = CN[C@@H](C)C(=O)O; Piperidide = C1CCN(*)CC1; Abu = CC[C@H](N)C(=O)O; NBuGly = CCCCNCC(=O)O; Isopentyl = CC(C)CC*; ξS = NC(CO)C(=O)O; Sar = CNCC(=O)O; tBu = CC(C)(C)*; CHF2 = FC(F)*",
  "data": [
    {"assay": "Caco-2 membrane permeability, improved method as used in the following Examples (96-well, 20 to 24 h preincubation)", "format": "in vitro ADME", "details": "human, Caco-2, Caco-2", "in_short": "(§1)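 Caco-2 monolayers were grown three weeks and preincubated 20–24 h at 37 °C with compound in DMEM+FaSSIF (1% DMSO) apically. The assay then used compound in FaSSIF/HBSS (1% DMSO, pH 6.0) apically and HBSS with 4% BSA (pH 7.4) basally. Basal samples were taken at 180 min for LC/MS, and Papp (cm/sec) was calculated.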", "units": {"Papp A→B at 180 min": "×10⁻⁶ cm/s"}, "values": [
      {"compound": "CCCCN1CC(=O)N(C)[C@@H](Cc2ccccc2)C(=O)N(C)[C@@H](CC(C)C)C(=O)N[C@@H](COC(C)(C)C)C(=O)N(C)[C@@H](CC(C)C)C(=O)N[C@H](C(=O)N2CCCCC2)CC(=O)N(C)CC(=O)N(C)[C@@H](Cc2cccc(Cl)c2)C(=O)N[C@@H](COC[C@@H](C)O)C(=O)N(C)[C@@H](CC(C)C)C(=O)N[C@@H]([C@@H](C)O)C1=O", "note": "[pd490] ([Sar][NMePhe(3-Cl)]S(Propyl(2R-OH))[NMeL]T[NBuGly][NMeF][NMeL]S(tBu)[NMeL]D-Piperidide; lactam N-11)", "Papp A→B at 180 min": 1},
      {"compound": "CCCC[C@@H](O)[C@@H]1NC(=O)[C@H](CC(C)C)N(C)C(=O)[C@H](C)NC(=O)[C@H](Cc2ccccc2)N(C)C(=O)[C@@H](C(C)C)NC(=O)C[C@@H](C(=O)N2CCCCC2)NC(=O)[C@H](C)N(C)C(=O)[C@H](Cc2ccccc2)N(C)C(=O)[C@H](COC(C)(C)C)NC(=O)[C@H](CC(C)C)N(C)C(=O)CN(C)C1=O", "note": "[pd467] ([dV][NMeF]A[NMeL][X12][Sar][NMeL]S(tBu)[NMeF][NMeA]D-Piperidide; lactam N-11)", "Papp A→B at 180 min": 1.4},
      {"compound": "CC(C)CCOCC1NC(=O)[C@H](CC(C)C)N(C)C(=O)[C@H](Cc2ccccc2)N(C)C(=O)CN(C)C(=O)[C@H]([C@@H](C)O)NC(=O)[C@H](CC(C)C)N(C)C(=O)[C@H](C(C)C)NC(=O)[C@H](Cc2ccccc2)N(C)C(=O)CN(C)C(=O)C[C@@H](C(=O)N2CCCCC2)NC(=O)[C@H](CC(C)C)N(C)C1=O", "note": "(stereo partly drawn) [pd305] ([Sar][NMeF]V[NMeL]T[Sar][NMeF][NMeL][ξS](Isopentyl)[NMeL]D-Piperidide; lactam N-11)", "Papp A→B at 180 min": 2.3},
      {"compound": "CC(C)C[C@@H]1NC(=O)[C@H](CC(C)C)N(C)C(=O)CN(C)C(=O)[C@H]([C@@H](C)O)NC(=O)[C@H](CC(C)C)N(C)C(=O)[C@H](CCc2ccccc2Cl)NC(=O)[C@H](C)N(C)C(=O)[C@@H](C(C)C)NC(=O)C[C@@H](C(=O)N2CCCCC2)NC(=O)[C@H](C(C)C)N(C)C(=O)[C@H](Cc2ccccc2)N(C)C1=O", "note": "[pd351] ([dV][NMeA][X14][NMeL]T[Sar][NMeL]L[NMeF][NMeV]D-Piperidide; lactam N-11)", "Papp A→B at 180 min": 1.9},
      {"compound": "CC(C)C[C@H]1C(=O)N[C@@H](COC(C)(C)C)C(=O)N(C)[C@@H](Cc2ccccc2)C(=O)N(C)[C@@H](C(C)C)C(=O)N[C@H](C(=O)N2CCCCC2)CC(=O)N[C@H](C(C)C)C(=O)N(C)[C@@H](C)C(=O)N[C@@H](CCc2ccccc2Cl)C(=O)N(C)[C@@H](CC(C)C)C(=O)N[C@@H]([C@@H](C)O)C(=O)N(C)CC(=O)N1C", "note": "[pd350] ([dV][NMeA][X14][NMeL]T[Sar][NMeL]S(tBu)[NMeF][NMeV]D-Piperidide; lactam N-11)", "Papp A→B at 180 min": 1.7},
      {"compound": "CC(C)C[C@H]1C(=O)N[C@@H](COC(C)(C)C)C(=O)N(C)[C@@H](Cc2ccccc2)C(=O)N(C)[C@@H](C(C)C)C(=O)N[C@H](C(=O)N2CCCCC2)CC(=O)N[C@H](C(C)C)C(=O)N(C)[C@@H](Cc2ccccc2)C(=O)N[C@@H](COc2cccc(Cl)c2)C(=O)N(C)[C@@H](C)C(=O)N[C@@H]([C@@H](C)O)C(=O)N(C)CC(=O)N1C", "note": "[pd342]", "Papp A→B at 180 min": 1.9},
      {"compound": "CC(=O)NCCCC[C@@H]1NC(=O)[C@H](CC(C)C)N(C)C(=O)[C@H](CC(C)C)NC(=O)[C@H](Cc2ccccc2)N(C)C(=O)[C@@H](C(C)C)NC(=O)C[C@@H](C(=O)N2CCCCC2)NC(=O)[C@H](C(C)C)N(C)C(=O)[C@H](Cc2ccccc2)N(C)C(=O)[C@H](COC(C)(C)C)NC(=O)[C@H](CC(C)C)N(C)C(=O)CN(C)C1=O", "note": "[pd470] ([dV][NMeF]L[NMeL]K(Ac)[Sar][NMeL]S(tBu)[NMeF][NMeV]D-Piperidide; lactam N-11)", "Papp A→B at 180 min": 2.1},
      {"compound": "CCCCCN1CC(=O)N(C)[C@@H](Cc2ccccc2)C(=O)N[C@@H](CC(C)C)C(=O)N(C)[C@@H](CC)C(=O)N[C@@H]([C@@H](C)O)C(=O)N(C)CC(=O)N(C)[C@@H](Cc2ccccc2)C(=O)N(C)[C@@H](CC)C(=O)N[C@@H](COC(C)(C)C)C(=O)N(C)[C@@H](CC(C)C)C(=O)N[C@H](C(=O)N2CCCCC2)CC1=O", "note": "[pd405] ([NPentylGly][NMeF]L[NMeAbu]T[Sar][NMeF][NMeAbu]S(tBu)[NMeL]D-Piperidide; lactam N-11)", "Papp A→B at 180 min": 2.2},
      {"compound": "CCCCN1CC(=O)N(C)[C@@H](C)C(=O)N[C@H](C(=O)N2CCCCC2)CC(=O)N(C)[C@@H](C)C(=O)N[C@@H](Cc2ccc(OC(F)F)cc2)C(=O)N(C)[C@@H](CC(C)C)C(=O)N(C)[C@@H](Cc2ccccc2)C(=O)N[C@@H](CC(C)C)C(=O)N(C)[C@@H](CC(C)C)C(=O)N(C)[C@@H]([C@@H](C)CC)C(=O)N[C@@H]([C@@H](C)O)C1=O", "note": "[pd479] ([NMeA]Y(CHF2)[NMeL][NMeF]L[NMeL][NMeI]T[NBuGly][NMeA]D-Piperidide; lactam N-11)", "Papp A→B at 180 min": 1},
      {"compound": "CC[C@@H]1NC(=O)[C@H](Cc2ccccc2)N(C)C(=O)[C@H](CC(C)C)N(C)C(=O)[C@H](CC(C)C)NC(=O)[C@H](CC)N(C)C(=O)C[C@@H](C(=O)N2CCCCC2)NC(=O)[C@H](CC(C)C)N(C)C(=O)CN(C)C(=O)[C@H]([C@@H](C)O)NC(=O)CN(CCOc2ccccc2)C(=O)[C@H](CC(C)C)N(C)C1=O", "note": "[pd424] ([NMeAbu]L[NMeL][NMeF][Abu][NMeL][X9]T[Sar][NMeL]D-Piperidide; lactam N-11)", "Papp A→B at 180 min": 1.2},
      {"compound": "CC(=O)NCCCC[C@@H]1NC(=O)[C@H](CC(C)C)N(C)C(=O)[C@H](CC(C)C)NC(=O)[C@H](Cc2ccccc2)N(C)C(=O)[C@@H](CC(C)C)NC(=O)C[C@@H](C(=O)N2CCCCC2)NC(=O)[C@H](C(C)C)N(C)C(=O)[C@H](Cc2ccccc2)N(C)C(=O)[C@H](COC(C)(C)C)NC(=O)[C@H](CC(C)C)N(C)C(=O)CN(C)C1=O", "note": "[pd471] ([dL][NMeF]L[NMeL]K(Ac)[Sar][NMeL]S(tBu)[NMeF][NMeV]D-Piperidide; lactam N-11)", "Papp A→B at 180 min": 2.1}
    ]},
    {"assay": "Caco-2 membrane permeability, improved method as used in the following Examples (96-well, 20 to 24 h preincubation)", "format": "in vitro ADME", "details": "human, Caco-2, Caco-2 (cm/sec)", "in_short": "as §1", "units": {"Papp A→B at 180 min": "×10⁻⁶ cm/s"}, "values": [
      {"compound": "CC[C@H](C)[C@@H]1NC(=O)[C@H](Cc2ccccc2)N(C)C(=O)[C@H](C)N(C)C(=O)[C@H](CC(C)C)N(C)C(=O)[C@H](Cc2ccccc2)N(C)C(=O)CCN(C)C(=O)C[C@@H](C(=O)N(C)[C@@H](Cc2ccccc2)C(=O)N(C)[C@@H](Cc2ccccc2)C(=O)N[C@@H](C)C(=O)N2CCCCC2)NC(=O)[C@H]([C@@H](C)O)NC(=O)[C@H](CC(C)C)N(C)C(=O)[C@H](CC(C)C)N(C)C1=O", "note": "[pd239] ([NMeβAla][NMeF][NMeL][NMeA][NMeF]I[NMeL][NMeL]TD[NMeF][NMeF]A-Piperidide; lactam N-10)", "Papp A→B at 180 min": 0.065},
      {"compound": "CC(C)C[C@@H]1NC(=O)[C@H](CC(C)C)N(C)C(=O)[C@@H](CC(C)C)NC(=O)C[C@@H](C(=O)N2CCCCC2)NC(=O)[C@H](CC(C)C)N(C)C(=O)[C@H](Cc2cccc(Cl)c2)N(C)C(=O)[C@H](Cc2ccncc2)NC(=O)[C@H](CC(C)C)N(C)C(=O)CN(C)C(=O)[C@H]([C@@H](C)O)NC(=O)[C@H](CC(C)C)N(C)C1=O", "note": "[pd172] ([dL][NMeL]L[NMeL]T[Sar][NMeL][4Pal][NMePhe(3-Cl)][NMeL]D-Piperidide; lactam N-11)", "Papp A→B at 180 min": 1.1},
      {"compound": "CC(C)C[C@@H]1NC(=O)[C@H](C)N(C)C(=O)C[C@@H](C(=O)N2CCCCC2)NC(=O)[C@H](CC(C)C)N(C)C(=O)CN(C)C(=O)[C@H]([C@@H](C)O)NC(=O)[C@H](CC(C)C)N(C)C(=O)[C@H](Cc2cccc(Cl)c2)N(C)C(=O)[C@H](C)NC(=O)[C@H](Cc2ccccc2)N(C)C(=O)[C@H](CC(C)C)N(C)C1=O", "note": "[pd161] ([NMeA]L[NMeL][NMeF]A[NMePhe(3-Cl)][NMeL]T[Sar][NMeL]D-Piperidide; lactam N-11)", "Papp A→B at 180 min": 1.4},
      {"compound": "CC[C@@H]1NC(=O)[C@H](C(C)C)N(C)C(=O)[C@@H](C(C)C)NC(=O)C[C@@H](C(=O)N2CCCCC2)NC(=O)[C@H](CC(C)C)N(C)C(=O)[C@H](Cc2cccc(Cl)c2)N(C)C(=O)[C@H](COC(C)(C)C)NC(=O)[C@H](CC(C)C)N(C)C(=O)CN(C)C(=O)[C@H](Cc2cccnc2)NC(=O)[C@H](CC(C)C)N(C)C1=O", "note": "[pd164] ([dV][NMeV][Abu][NMeL][3Pal][Sar][NMeL]S(tBu)[NMePhe(3-Cl)][NMeL]D-Piperidide; lactam N-11)", "Papp A→B at 180 min": 1.6},
      {"compound": "CC(C)C[C@@H]1NC(=O)[C@H](Cc2ccccc2)N(C)C(=O)[C@H](COC(C)(C)C)NC(=O)[C@H](Cc2ccccc2)N(C)C(=O)[C@H](C)N(C)C(=O)[C@H](CC(C)C)N(C)C(=O)[C@@H](C)NC(=O)C[C@@H](C(=O)N2CCCCC2)N(C)C(=O)[C@H](Cc2ccccc2)N(C)C(=O)[C@H]([C@@H](C)O)NC(=O)[C@H](C(C)C)N(C)C1=O", "note": "[pd208] ([dA][NMeL][NMeA][NMeF]S(tBu)[NMeF]L[NMeV]T[NMeF][NMeD]-Piperidide; lactam N-11)", "Papp A→B at 180 min": 1.7},
      {"compound": "CC[C@H](C)[C@@H]1NC(=O)[C@H](Cc2ccccc2)N(C)C(=O)CN(C)C(=O)C[C@@H](C(=O)N2CCCCC2)NC(=O)[C@H](C(C)C)N(C)C(=O)[C@H](COC(C)(C)C)NC(=O)[C@H](CC(C)C)N(C)C(=O)[C@H](Cc2cccc(Cl)c2)N(C)C(=O)CN(C)C(=O)[C@H]([C@@H](C)O)NC(=O)[C@H](CC(C)C)N(C)C1=O", "note": "[pd158] ([Sar][NMeF]I[NMeL]T[Sar][NMePhe(3-Cl)][NMeL]S(tBu)[NMeV]D-Piperidide; lactam N-11)", "Papp A→B at 180 min": 1.4}
    ]}
  ]
}
